From US20260083723A1, “THERAPEUTIC AGENT OR PROPHYLACTIC AGENT FOR AMYOTROPHIC LATERAL SCLEROSIS” (Toray Industries, Inc., priority 2022, published 2026)

Legend:
[1] = test system: Human fibrosarcoma cells (HT-1080 cells); assay: In vitro inhibitory action against ferroptosis (Erastin-induced cell death, Cell Counting Kit-8); type: cell-based; details: Evaluation concentration 30 μmol/L, Erastin 3 μmol/L, 24 hours
Method: The inhibitory action against ferroptosis of the tetrahydroquinoline derivative (I) or a pharmaceutically acceptable salt thereof was evaluated with Human fibrosarcoma cells (HT-1080 cells), by using, as an index, the inhibitory action against the cell death induced by treatment with a ferroptosis inducer, Erastin.
HT-1080 cells (ATCC) were cultured in a mixture (hereinafter referred to as vehicle) composed of DMEM/F12 (Thermo Fisher Scientific, Inc.), a final concentration of 10% fetal bovine serum (Thermo Fisher Scientific, Inc.), and a final concentration of 1% penicillin-streptomycin solution (Nacalai Tesque, Inc.). Cells were seeded into 96-well plates (Corning Inc.) at 5×10^4 cells/well and cultured overnight.
A test compound was dissolved in DMSO, and the resulting solution was diluted in the vehicle to a final concentration of 1% DMSO and then used. […] Twenty-four hours after the addition of Erastin, 5 μL of Cell Counting Kit-8 (Dojindo Laboratories) was added to each well and incubated for 4 hours, and the absorbance at 450 nm was then measured for each well (N=2). The average absorbance value at 450 nm was calculated from the absorbance values of the wells, and the inhibition rate of ferroptosis by the test compound (hereinafter referred to as ferroptosis inhibition rate, %) was then calculated based on Equation 1.

[2] = In vitro radical scavenging action (DPPH method); details: 1.2-100 μmol/L, 30 minutes at room temperature, absorbance at 517 nm
Method: The radical scavenging action of a test compound can be evaluated using an in vitro test and, for example, by a method (Antioxidants, 2019, vol. 258) using a stable radical, 1,1-diphenyl-2-picrylhydrazil (DPPH).
Radical scavenging action was evaluated using the DPPH method in the compound of Comparative Example 1, which is a tetrahydroquinoxaline derivative, and in the tetrahydroquinoline derivative (I) or a pharmaceutically acceptable salt thereof. The DPPH method was performed using an antioxidant capacity measurement kit (Dojindo Laboratories).
A test compound was dissolved in DMSO, and the resulting solution was then mixed with an assay buffer and a DPPH solution, which are included in the kit, to a total volume of 200 μL to obtain a final concentration of 10% DMSO, and the reaction was allowed to proceed. Wells added with […] ferrostatin-1, a radical scavenger, were grouped as “control,” and wells not added with test compound were grouped as “background”. The test compound was serially diluted 3-fold starting from a maximum concentration of 100 μmol/L, and the diluted test compound (1.2, 3.7, 11.1, 33.3, or 100 μmol/L) was added and allowed to react at room temperature. Thirty minutes after the reaction, the absorbance at 517 nm was measured, and the average absorbance value was calculated (N=2). The radical scavenging action of the test compound (hereinafter referred to as radical scavenging rate, %) was calculated based on Equation 2. The EC50 value of the test compound was calculated from the radical scavenging rate.
A note “no detection of radical scavenging action (N.D.),” is given to compounds with a EC50 of >100 μmol/L.

[3] = test system: superoxide dismutase 1 (SOD1) G93A transgenic mice; assay: Assessment of motor dysfunction in amyotrophic lateral sclerosis model mouse (hind limb extension test); type: in vivo
Method: The effect of the tetrahydroquinoline derivative (I) or a pharmaceutically acceptable salt thereof on the onset of a motor dysfunction in superoxide dismutase 1 (SOD1) G93A transgenic mice that are amyotrophic lateral sclerosis model mice was tested. The tetrahydroquinoline derivative (I) or a pharmaceutically acceptable salt thereof was evaluated using the compound of Example 1. The amyotrophic lateral sclerosis model mice used were transgenic mice overexpressing human superoxide dismutase 1 (SOD1) with G93A mutation (Jackson Laboratories #004435). Male transgenic mice and wild-type female C57BL/6J mice from Charles River were mated. The tail tips of the born offspring mice were used for genotyping. The obtained male transgenic mice were used for the evaluation. The test substance (compound of Example 1) was prepared as a suspension with the required concentration (10 mg/mL) using 0.5 w/v % methylcellulose as the vehicle, and was administered repeatedly and orally, once daily, five times a week, at a dosing volume of 10 mL/kg, or 100 mg/kg, starting at 56 days of age and continuing for 10 weeks (50 doses in total) until the mice reached 126 days of age. A group administered repeatedly and orally with the compound of Example 1 was termed the “Example 1” group (n=9). In addition, a group administered with 0.5 w/v % methylcellulose in the same volume, frequency, and method as the compound of Example 1 was termed the “vehicle” group (n=6). Whenever possible, litters were divided into both groups. Starting from the beginning of administration, a hind limb extension test was conducted before each dose to evaluate the motor function. […] The hind limb extension test was performed five times a week.

Compound | Ferroptosis inhibition rate (%) [1] [%] | EC50 [2] [µM] | median value of the onset age in days ([3]; 100 mg/kg orally once daily, five times a week, from 56 days of age for 10 weeks, male SOD1 G93A transgenic mice, n=9) | age of onset in days vs vehicle group, log-rank (Mantel-Cox) test p ([3]; 100 mg/kg orally once daily, five times a week, from 56 days of age for 10 weeks, significantly higher than vehicle group) | effect on onset of motor dysfunction in amyotrophic lateral sclerosis model mice (in words) ([3]; compared to the vehicle group)
7-fluoro-(1H-pyrazol-4-yl)-1,2,3,4-tetrahydroquinoline [Example 140] | 72.81 |  |  |  | 
Cl.c1ccc(C2CCc3ccccc3N2)cc1 (centres unmarked) [Example 1, 2-phenyl-1,2,3,4-tetrahydroquinoline hydrochloride] |  | > 100 | 121.0 days of age | < 0.05 | delay the onset
